Measurements reported in patent US9968583B2, “Method of manufacture of liposome composition” (EISAI R & D MANAGEMENT CO., LTD., priority 2009, dated 2018).
Structures can show the parent of a compound that is named as a salt. Where two headings read alike, the source gives them in different places. One block for each molecule: values may come before it.

Columns and labels:
[1] = complex with HP-β-cyclodextrin, Non-patent Literature 6, cited from earlier work
[2] = Eribulin mesylate blood plasma and tumor tissue PK in LOX cancer-bearing mice (Embodiment 11); format: in vivo; details: female, NU/NU nude, mouse, iv
Experimental: A blood sample was taken and tumor tissue extraction was carried out with a cardiac puncture at fixed periods after administration (15 minutes, 30 minutes, 1, 2, 4, 8, 12, 24, 36, and 48 hours) (n=3). The blood was sampled in a test tube containing heparin, and within 30 minutes of the sampling, the blood was separated by centrifuging at 1,500×g for 10 minutes at 4° C. to obtain the blood plasma. All of the tumor tissue was extracted, washed with PBS, and wiped with water-absorbent paper, and then the tissue weight was immediately weighed. The tissue was placed in a test tube and cooled in ice water, and then stored at −80° C. until analysis was carried out.
The PK parameters were calculated using non-compartment model analysis software (WinNonlin version 5.0.1).

[3] = tested on: WiDr, human colon cancer cell line; assay: Antitumor activity of eribulin mesylate in WiDr cancer-bearing nude mice (Embodiment 12, FIG. 5); format: in vivo; details: 2 mg/kg; caudal vein, 2 times in 7-day intervals; five mice per group
Experimental: WiDr, which is a human colon cancer cell line, was cultured and grown in a 10% bovine fetal serum-containing RPMI1640 culture. The cells were separated from the flask using 0.05% Trypsin-EDTA solution and collected. After washing with PBS, the cells were suspended in Hank's Balanced Salt Solution (manufactured by Gibco BRL Co. Ltd.) so as to be 5×10^7 cells/mL and kept on ice. 0.1 mL of cell suspension liquid were subcutaneously injected in the right ventral portion of 7-week old nude mice (Charles River Laboratories Japan, Inc.). Each mouse was observed daily, and notes were made appropriately in cases where abnormal conditions were found. Calipers were used to measure the tumor size over time, and the tumor size was calculated based on the calculation formula: major axis×(minor axis squared)÷2. At the point when the tumor size was 100 to 200 mm^3, the mice were separated into groups such that the average values of the tumor sizes and the mouse body weights were uniform among the test groups (five mice per test group), and the drug was administered into the caudal vein (0.2 mL/20 g; 2 times in 7-day intervals).

[4] = tested on: FaDu, human pharyngeal squamous cell carcinoma line; assay: Antitumor activity of eribulin mesylate in FaDu cancer-bearing nude mice (Embodiment 13, FIG. 6); format: in vivo; details: 4.0 mg/kg free bodies, caudal vein, 3 times in 7-day intervals
Experimental: FaDu (obtained from the American Type Culture Collection), which is a human pharyngeal squamous cell carcinoma line, was cultured and grown in a 10% bovine fetal serum-containing MEM culture. The cells were separated from the flask using 0.05% Trypsin-EDTA solution and collected. After washing with PBS, the cells were suspended in PBS so as to be 5×10^7 cells/mL and then kept on ice. 0.1 mL of cell suspension liquid were subcutaneously injected in the right ventral portion of 6-week old nude mice (Charles River Laboratories Japan, Inc.). Each mouse was observed daily, and notes made appropriately in cases where abnormal conditions were found. Calipers were used to measure the tumor size over time, and the tumor size was calculated based on the calculation formula: major axis×(minor axis squared)÷2. At the point when the tumor size was 100 to 200 mm^3, the mice were separated into groups such that the average values of the tumor sizes and the body weights of mice were uniform among the test groups (five mice per test group), and the drug was administered into the caudal vein (0.2 mL/20 g; 3 times in 7-day intervals).

[5] = tested on: FaDu, human pharyngeal squamous cell carcinoma line; assay: Antitumor activity of eribulin mesylate in FaDu cancer-bearing nude mice (Embodiment 14, FIG. 7); format: in vivo; details: 4.0 mg/kg free bodies, caudal vein, 3 times in 7-day intervals
Experimental: FaDu (obtained from the American Type Culture Collection), which is a human pharyngeal squamous cell carcinoma line, was cultured and grown in a 10% bovine fetal serum-containing MEM culture. The cells were separated from the flask using 0.05% Trypsin-EDTA solution and collected. After washing with PBS, the cells were suspended in PBS so as to be 5×10^7 cells/mL and kept on ice. 0.1 mL of cell suspension liquid was subcutaneously injected in the right ventral portion of 6-week old nude mice (Charles River Laboratories Japan, Inc.). Each mouse was observed daily, and notes were made appropriately in cases where abnormal conditions were found. Calipers were used to measure the tumor size over time, and the tumor size was calculated based on the calculation formula: major axis×(minor axis squared)÷2. At the point when the tumor size was 100 to 200 mm^3, the mice were separated into groups such that the average values of the tumor sizes and the mouse body weights were uniform among the test groups (five mice per test group), and the drug was administered into the caudal vein (0.2 mL/20 g; 3 times in 7-day intervals).

[6] = tested on: ACHN, human renal cancer cell line; assay: Antitumor activity of eribulin mesylate in ACHN cancer-bearing nude mice (Embodiment 15, FIG. 8); format: in vivo; details: free body 2 mg/kg, 3 mg/kg and 4 mg/kg, 3 times in 7-day intervals, 45 days after the start of administration
Experimental: ACHN (obtained from the American Type Culture Collection), which is a human renal cancer cell line, was cultured and grown in a 10% bovine fetal serum-containing MEM culture. The cells were separated from the flask using 0.05% Trypsin-EDTA solution and collected. After washing with PBS, the cells were suspended in PBS so as to be 5×10^7 cells/mL and then kept on ice. 0.1 mL of cell suspension liquid was subcutaneously injected in the right ventral portion of 6-week old nude mice (Charles River Laboratories Japan, Inc.). Each mouse was observed daily, and notes were made appropriately in cases where abnormal conditions were found. Calipers were used to measure the tumor size over time, and the tumor size was calculated based on the calculation formula: major axis×(minor axis squared)÷2. At the point when the tumor size was 150 to 200 mm^3, the mice were separated into groups such that the average values of the tumor sizes and the mouse body weights were uniform among the test groups (five mice per test group), and the drug was administered into the caudal vein (0.2 mL/20 g; 3 times in 7-day intervals).

[7] = Maximum tolerance dose of eribulin mesylate free bodies; format: in vivo; details: free body of eribulin mesylate, caudal vein, nude mice
[8] = Measurement of the entrapment ratio (ultracentrifugation, HPLC of active compound in the filtrate); format: physicochemical; details: E7107, internal phase 250 mM HP-β-cyclodextrin/100 mM citric acid (pH=5.5)
Experimental: The entrapment ratio was determined as described below.
The entrapment ratio was calculated using the formula below.

[9] = tested on: WiDr, human colon cancer cell line; assay: Therapeutic effect of E7107 on tumor growth in WiDr cancer-bearing nude mice (Embodiment 10); format: in vivo; details: 2.5 mg/kg single dose into caudal vein; 5 days after administration
Experimental: (§1) WiDr (obtained from Dainippon Sumitomo Pharma Co., Ltd.), which is a human colon cancer cell line, was cultured and grown in a 10% bovine fetal serum-containing RPMI1640 culture. The cells were separated from the flask using 0.05% Trypsin-EDTA solution and collected. After washing with PBS, the cells were suspended in Hank's Balanced Salt Solution (manufactured by GIBCO) so as to be 5×10^7 cells/mL and kept on ice. 100 μL of cell suspension liquid was subcutaneously injected in the right ventral portion of 6- to 8-week old nude mice (CLEA Japan, Inc.). Each mouse was observed daily, and notes were made appropriately in cases where abnormal conditions were found. Calipers were used to measure the tumor size over time, and the tumor size was calculated based on the calculation formula: major axis×(minor axis squared)÷2. Moreover, the mouse body weight was also measured over time. At the point when the tumor size was 100 to 200 mm^3, the mice were separated into groups such that the average values of the tumor sizes and the mouse body weights were uniform among the test groups (five mice per test group). […]
(§2) The tumor-growth suppression effect and the body weight loss 5 days after administration were statistically analyzed by a parametric method. […]

[10] = Body weight of WiDr cancer-bearing nude mice (Embodiment 10); format: in vivo; details: average body weight; 2.5 mg/kg single dose; 5 days after administration
Experimental: as §1, §2

[11] = blood plasma, 1.0 mg/kg into caudal vein, LOX cancer-bearing mice
[12] = tumor tissue, 1.0 mg/kg into caudal vein, LOX cancer-bearing mice

Structure (SMILES): CC(C(=O)O)c1cccc(C(=O)c2ccccc2)c1 (stereo not drawn) [ketoprofen]
Entrapment ratio ([1]; MLVs (multilamellar vesicles)): approximately 75%
Entrapment ratio ([1]; SUVs (small unilamellar vesicles)): approximately 55%

Structure (SMILES): C=C1C[C@@H]2CC[C@@]34C[C@H]5O[C@H]6[C@@H](O3)[C@H]3O[C@H](CC[C@@H]3O[C@H]6[C@H]5O4)CC(=O)C[C@@H]3[C@@H](OC)[C@@H](C[C@H](O)CN)O[C@H]3C[C@H]3O[C@@H](CC[C@@H]1O2)C[C@@H](C)C3=C [eribulin mesylate]
MRT [2, 11]: 3.3 h
clearance [2, 11]: 40.3 mL/min/kg
half-life [2, 11]: 3.7 h
Vd ([2]; blood plasma, 1.0 mg/kg into caudal vein, LOX cancer-bearing mice, read-out: Vss): 8.03 L/kg
AUC(0-inf) [2, 12]: 6290 ng·h/mL
AUC(0-t) [2, 12]: 4650 ng·h/mL
Cmax [2, 12]: 323 ng/g
MRT [2, 12]: 27.7 h
Tmax [2, 12]: 0.25 h
half-life [2, 12]: 17.8 h
AUC(0-inf) ([2]; plasma, 1 mg/kg): 365 ng·h/mL
AUC(0-t) ([2]; plasma, 1 mg/kg): 363 ng·h/mL
Complete disappearance of the tumor / mice completely healed [3]: 2 out of 5
Tumor-reducing effect [4]: tumor-reducing effect was not obtained
Tumor-reducing effect [5]: tumor-reducing effect was not obtained
Tumor volume versus the untreated group [6]: no significant difference
Maximum tolerance dose [7]: 4 mg/kg
Maximum tolerance dose ([7]; listed as free bodies): 4.0 mg/kg

Entrapment ratio (%) ([8]; 5° C., 5 minutes): 0%
Entrapment ratio (%) ([8]; 5° C., 1 hour): 0%
Entrapment ratio (%) ([8]; 5° C., 6 hours): 0%
Entrapment ratio (%) ([8]; 20° C., 1 minute): 0%
Entrapment ratio (%) ([8]; 20° C., 5 minutes): 0%
Entrapment ratio (%) ([8]; 20° C., 1 hour): 13.1%
Entrapment ratio (%) ([8]; 20° C., 6 hours): 49.6%
Entrapment ratio (%) ([8]; 40° C., 1 minute): 4.1%
Entrapment ratio (%) ([8]; 40° C., 5 minutes): 87.5%
Entrapment ratio (%) ([8]; 50° C., 1 minute): 56.8%
Entrapment ratio (%) ([8]; 60° C., 1 minute): 99.2%
Structure (SMILES): CCC(O)C(C)C1OC1CC(C)(O)/C=C/C=C(\C)C1OC(=O)CC(O)CCC(C)(O)C(OC(=O)N2CCN(C3CCCCCC3)CC2)/C=C/C1C (stereo not drawn) [E7107, (8E,12E,14E)-7-{(4-cycloheptylpiperazin-1-yl)carbonyl}oxy-3,6,16,21-tetrahydroxy-6,10,12,16,20-pentamethyl-18,19-epoxytricosa-8,12,14-trien-11-olide]
Tumor (mm^3) [9]: 204.34 mm^3
Body weight [10]: 20.32 g
